Key:
Format in all cases: cell-based
HCoV-229E [1] = experiment: Quencher assay (singlet oxygen quenchers); details: quencher 10 mM, Pba 0.5 or 1 μM
HCoV-229E [2] = experiment: HCoV-229E-Luc infection inhibition luciferase assay; details: for light dependence of antiviral effect: HCoV-229E, light versus dark; for IC50: against HCoV-229E, normal white light exposure, read-out: IC50; for antiviral activity against HCoV-229E-Luc, screening of related compounds: Huh-7 cells, 1, 5, 10 µM, light exposure
Huh-7 cells = experiment: MTS cell toxicity assay, Huh-7 cells; details: Huh-7 cells, 24 h, light exposure
Description: A total of 6 × 10^4 Huh-7, Vero-E6, and Vero-81 cells were seeded in 96-well plates and incubated for 16 h at 37°C in a 5% CO2 incubator. The cells were then treated with increasing concentrations of the compound of interest. One hour after inoculation, cells were taken out of the incubator to be exposed to the white light of a biosafety cabinet (BSC) for 10 min, after which cells were further incubated in the dark at 37°C and 5% CO2 for 23 h. The BSC’s light source lamp consists of one fluorescent tube of 36 W, 3,350 lumen, white light. An MTS [3-(4,5-dimethylthiazol-2-yl)-5-(3-carboxymethoxyphenyl)-2-(4-sulfophenyl)-2H-tetrazolium]-based viability assay (Cell Titer 96 aqueous nonradioactive cell proliferation assay; Promega) was performed as recommended by the manufacturer. The absorbance of formazan at 490 nm was detected using a plate reader (ELX 808 Bio-Tek Instruments Inc.). Each measure was performed in triplicate, and each experiment was repeated at least 3 times.
6×104 Huh-7, Vero-E6 and Vero-81 cells were seeded in 96-well plates and incubated for 16 h at 37 °C 5% CO2 incubator. The cells were then treated with increasing concentrations of the compound of interest. One hour after inoculation, cells were either left in the incubator (dark condition) or taken out to be exposed to the white light of the biosafety cabinet (BSC) for 10 min (light condition), after which cells were further incubated in the dark at 37 °C 5% CO2 for 23 h. BSC’s light source lamp consists of one fluorescent tube of 36W, 3350 lumen white light. An MTS [3-(4,5-dimethylthiazol-2-yl)-5-(3-carboxymethoxyphenyl)-2-(4-sulfophenyl)- 2H-tetrazolium]-based viability assay (Cell Titer 96 Aqueous non-radioactive cell proliferation assay, Promega) was performed as recommended by the manufacturer. The absorbance of formazan at 490 nm was detected using a plate reader (ELX 808 Bio-Tek […]
Instruments Inc). […]

SARS-CoV-2 = system: SARS-CoV-2

Row | Molecule | light dependence of antiviral effect (HCoV-229E [2]) | IC50 (HCoV-229E [2]; Huh-7 cells) [µM] | CC50 (Huh-7 cells) [µM] | antiviral activity against HCoV-229E-Luc, screening of related compounds (HCoV-229E [2]) | further results
1 | Cc1c(C)c2c(c(C)c1O)CCC(C)(C(=O)O)O2 (stereo not drawn) [Trolox] | – | – | – | – | effect of quencher on antiviral action of Pba (HCoV-229E [1]): able to reduce the action of Pba
2 | C=CC1=C(C)c2cc3[n-]c(cc4[n-]c(cc5nc(cc1n2)C(C)=C5C=C)c(C)c4CCC(=O)O)c(CCC(=O)O)c3C.[Zn+2] [Zn protoporphyrin IX, Zn-protoporphyrin IX] | light-dependent antiviral effect | 0.79 | 16.6 | – | –
3 | CCN(CC)CCCC(C)Nc1ccnc2cc(Cl)ccc12 (stereo not drawn) [chloroquine, reference compound] | – | – | – | – | infectivity relative to normal levels, compound added more than 2 h after inoculation (SARS-CoV-2): around 60%
4 | c1ccc2c(c1)-c1nc-2nc2[nH]c(nc3nc(nc4[nH]c(n1)c1ccccc41)-c1ccccc1-3)c1ccccc21 [phthalocyanine] | – | – | – | not active at the tested concentrations | –
5 | Oc1cccc(-c2c3nc(c(-c4cccc(O)c4)c4ccc([nH]4)c(-c4cccc(O)c4)c4nc(c(-c5cccc(O)c5)c5ccc2[nH]5)CC4)C=C3)c1 [temoporfin] | – | – | – | moderate antiviral activity | –
6 | HPPH | light-dependent antiviral effect | 1.14 | 8.13 | – | –
7 | N-methyl protoporphyrin IX | light-dependent antiviral effect | 1.21 | > 80 | – | antiviral activity under dark conditions (HCoV-229E [2]; Huh-7 cells, dark): showed antiviral activity under dark conditions
8 | hemin chloride | – | – | – | moderate antiviral activity | –

From paper PMC8846325, “A Photoactivable Natural Product with Broad Antiviral Activity against Enveloped Viruses, Including Highly Pathogenic Coronaviruses” (Antimicrobial Agents and Chemotherapy, 2022)
